Structures can show the parent of a compound that is named as a salt. Where two headings read alike, the source gives them in different places.
What was measured:
Type in all cases: cell-based
[1] = tested on: Target C mRNA; test: Splicing RT-qPCR gene panel, Target C canonical junction (CJ) mRNA; conditions: Homo sapiens; Table 8; larger gene panel, decrease in CJ mRNA levels
Description: (§1) Compounds described herein were used to modulate RNA transcript abundance in cells. The expression of a target mRNA was measured by detecting the formation of an exon-exon junction in the canonical transcript (CJ). A compound mediated exon-inclusion event was detected by observing an increase in formation of a new junction with an alternative exon (AJ). Real-time qPCR assays were used to detect these splicing switches and interrogate the potency of various compounds towards different target genes. A high-throughput real time quantitative PCR (RT-qPCR) assay was developed to measure these two isoforms of the mRNA (CJ and AJ) for exemplary genes, such as HTT, SMN2, and MYB, together with a control housekeeping gene, GAPDH or GUSB or PPIA, used for normalization. Briefly, the A673 or K562 cell line was treated with various compounds described herein (e.g., compounds of Formula (I)). After treatment, the levels of the HTT, MYB, or SMN2 mRNA targets were determined from each sample of cell lysate by cDNA synthesis followed by qPCR.
(§2) The A673 cell line was cultured in DMEM with 10% FBS. Cells were diluted with full growth media and plated in a 96-well plate (15,000 cells in 100 ul media per well). The plate was incubated at 37° C. with 5% CO2 for 24 hours to allow cells to adhere. An 11-point 3-fold serial dilution of the compounds was made in DMSO then diluted in media in an intermediate plate. Compounds were transferred from the intermediate plate to the cell plate with the top dose at a final concentration of 10 uM in the well. Final DMSO concentration was kept at or below 0.25%. The cell plate was returned to the incubator at 37° C. with 5% CO2 for an additional 24 hours.
(§3) The K562 cell line was cultured in IMDM with 10% FBS. For K562, cells were diluted with full growth media and plated in either a 96-well plate (50,000 cells in 50 uL media per well) or a 384-well plate (8,000-40,000 cells in 45 uL media per well). An 11-point 3-fold serial dilution of the compounds were made in DMSO then diluted in media in an intermediate plate. Compound was transferred from the intermediate plate to the cell plate with the top dose at a final concentration of 10 uM in the well. Final DMSO concentration was kept at or below 0.25%. Final volume was 100 uL for 96-well plate and 50 uL for 384-well plate. The cell plate was then placed in an incubator at 37° C. with 5% CO2 for 24 hours.
(§4) The cells were then gently washed with 50 uL-100 uL cold PBS before proceeding to addition of lysis buffer. 30 uL-50 uL of room temperature lysis buffer with DNAse I (and optionally RNAsin) was added to each well. Cells were shaken/mixed thoroughly at room temperature for 5-10 minutes for lysis to take place and then 3 uL-5 uL of room temperature stop solution was added and wells were shaken/mixed again. After 2-5 minutes, the cell lysate plate was transferred to ice for RT-qPCR reaction setup. The lysates could also be frozen at-80° C. for later use.
(§5) In some cases, a direct lysis buffer was used. An appropriate volume of 3× lysis buffer (10 mM Tris, 150 mM NaCl, 1.5%-2.5% Igepal and 0.1-1 U/uL RNAsin, pH 7.4) was directly added to either K562 or A673 cells in media and mixed by pipetting 3 times. The plates were then incubated at room temperature with shaking/rocking for 20-50 minutes to allow for lysis to take place. After this time, the cell lysate plate was transferred to ice to set up for the RT-qPCR reactions. The lysates could also be frozen at −80° C. for later use.
(§6) To set up 10 uL RT-qPCR reactions, cell lysates were transferred to 384-well qPCR plates containing the master mix according to the table below. The plates were sealed, gently vortexed, and spun down before the run. The volumes were adjusted accordingly in some instances where the reaction was carried in 20 μL. The table below summarizes the components of the RT-qPCR reactions:
(§7) The RT-qPCR reaction was performed using a QuantStudio (ThermoFisher) under the following fast cycling conditions. […]

[2] = tested on: HTT mRNA; test: Splicing RT-qPCR assay, HTT canonical (CJ) and alternative (AJ) junction mRNA; conditions: Homo sapiens; for EC50: AC50 = 50% response in AJ mRNA increase
Description: as §1, §2, §3, §4, §5, §6, §7

[3] = tested on: SMN2 mRNA; test: Splicing RT-qPCR gene panel, SMN2 canonical junction (CJ) mRNA; conditions: Homo sapiens; Table 8; larger gene panel, decrease in CJ mRNA levels
Description: as §1, §2, §3, §4, §5, §6, §7

[4] = tested on: MYB mRNA; test: Splicing RT-qPCR assay, MYB canonical (CJ) and alternative (AJ) junction mRNA; conditions: Homo sapiens; for EC50: AC50 = 50% response in AJ mRNA increase
Description: as §1, §2, §3, §4, §5, §6, §7

[5] = Table 7, RT-qPCR, A673 or K562 cells, 24 hours treatment
[6] = Table 7, IC50 = 50% response in CJ mRNA decrease, RT-qPCR, A673 or K562 cells, 24 hours treatment, read-out: HTT CJ
[7] = Table 8, larger gene panel, decrease in CJ mRNA levels, read-out: HTT CJ IC50
[8] = Table 7, IC50 = 50% response in CJ mRNA decrease, RT-qPCR, A673 or K562 cells, 24 hours treatment, read-out: MYB CJ
[9] = Table 8, larger gene panel, decrease in CJ mRNA levels, read-out: MYB CJ IC50

| Compound | IC50 [1] [nM] | EC50 [2, 5] [nM] | IC50 [2, 6] [nM] | IC50 [2, 7] [nM] | IC50 [3] [nM] | EC50 [4, 5] [nM] | IC50 [4, 8] [nM] | IC50 [4, 9] [nM] |
| --- | --- | --- | --- | --- | --- | --- | --- | --- |
| Cc1cn2nc(-c3nc4sc(C5CCOCC5)cc4s3)cc(C)c2n1 [Compound 196, 2,8-dimethyl-6-[5-(oxan-4-yl)thieno[2,3-d][1,3]thiazol-2-yl]imidazo[1,2-b]pyridazine] | 1000 to 10000 | 1000 to 10000 | 1000 to 10000 | 1000 to 10000 | 1000 to 10000 | 1000 to 10000 | 1000 to 10000 | 1000 to 10000 |
| Cc1nc2c(F)cc(-c3nc4sc(C5CCNCC5)cc4s3)cc2s1 [Compound 126] | 1000 to 10000 | 100 to 1000 | 100 to 1000 | 100 to 1000 | 100 to 1000 | 1000 to 10000 | 1000 to 10000 | 1000 to 10000 |
| CN1CCN(c2cc3sc(-c4cc(F)c5nn(C)cc5c4)nc3s2)CC1 [Compound 141, 7-fluoro-2-methyl-5-[5-(4-methylpiperazin-1-yl)thieno[2,3-d][1,3]thiazol-2-yl]indazole] | 1000 to 10000 | 100 to 1000 | 100 to 1000 | 100 to 1000 | < 100 | 100 to 1000 | 100 to 1000 | 100 to 1000 |
| Cc1cn2nc(-c3nc4sc(C5CCNCC5)cc4s3)cc(C)c2n1 [Compound 112, 4-(2-[2,8-dimethylimidazo[1,2-b]pyridazin-6-yl]thieno[2,3-d][1,3]thiazol-5-yl)piperidine] | < 100 | < 100 | < 100 | < 100 | < 100 | < 100 | < 100 | < 100 |
| Cn1cc2cc(-c3cc4sc(C5CCNCC5)nc4s3)cc(F)c2n1 [Compound 124, 7-fluoro-2-methyl-5-[2-(piperidin-4-yl)thieno[2,3-d][1,3]thiazol-5-yl]indazole] | 100 to 1000 | < 100 | 100 to 1000 | < 100 | < 100 | 100 to 1000 | 100 to 1000 | 100 to 1000 |
| Cn1cc2cc(N3Cc4sc(C5CCNCC5)cc4C3=O)cc(F)c2n1 [Compound 1119, 5-(7-fluoro-2-methylindazol-5-yl)-2-(piperidin-4-yl)-6H-thieno[2,3-c]pyrrol-4-one] | 100 to 1000 | < 100 | < 100 | < 100 | < 100 | 100 to 1000 | 100 to 1000 | 100 to 1000 |
| Cn1cc2cc(N3Cc4sc(C5CCNCC5)cc4C3=O)ncc2n1 [Compound 1125] | 1000 to 10000 | 1000 to 10000 | 1000 to 10000 | 1000 to 10000 | 100 to 1000 | 1000 to 10000 | 1000 to 10000 | 1000 to 10000 |
| Cc1cn2nc(-c3nc4sc(C5=CCNCC5)cc4s3)cc(C)c2n1 [Compound 198, 4-(2-{2,8-dimethylimidazo[1,2-b]pyridazin-6-yl}thieno[2,3-d][1,3]thiazol-5-yl)-1,2,3,6-tetrahydropyridine] | 1000 to 10000 | 100 to 1000 | < 100 | 100 to 1000 | < 100 | 100 to 1000 | 100 to 1000 | 100 to 1000 |
| CN1CCC2(CC1)CCN2c1cc2sc(-c3cc(F)c4nn(C)cc4c3)nc2s1 [Compound 204, 1-[2-(7-fluoro-2-methylindazol-5-yl)thieno[2,3-d][1,3]thiazol-5-yl]-7-methyl-1,7-diazaspiro [3.5]nonane] | 1000 to 10000 | 1000 to 10000 | 1000 to 10000 | 1000 to 10000 | 1000 to 10000 | 1000 to 10000 | 1000 to 10000 | 1000 to 10000 |
| Cn1cc2cc(-c3nc4sc(C5CCNCC5)cc4s3)cc(F)c2n1 [Compound 106, 7-fluoro-2-methyl-5-[5-(piperidin-4-yl)thieno[2,3-d][1,3]thiazol-2-yl]indazole] | < 100 | < 100 | < 100 | < 100 | < 100 | < 100 | < 100 | < 100 |
| COc1c(-c2cc3cn(C4CCNCC4)nc3s2)cc2c[nH]nc2c1C [Compound 248] | > 10000 | > 10000 | > 10000 | > 10000 | > 10000 | > 10000 | > 10000 | > 10000 |
| COc1c(-c2nc3sc(C4CCNCC4)cc3s2)cc(F)c2nn(C)cc12 [Compound 237, 7-fluoro-4-methoxy-2-methyl-5-[5-(piperidin-4-yl)thieno[2,3-d][1,3]thiazol-2-yl]indazole] | > 10000 | > 10000 | > 10000 | > 10000 | > 10000 | > 10000 | 1000 to 10000 | > 10000 |
| Cc1cc(-c2cc3cn([C@H]4CCNC[C@H]4F)nc3s2)cc2cn(C)nc12 (single isomer, unassigned) [Compound 245] | 1000 to 10000 | 100 to 1000 | 100 to 1000 | 100 to 1000 | 100 to 1000 | 1000 to 10000 | 1000 to 10000 | 1000 to 10000 |
| Cn1cc2cc(-c3nc4sc(N5CCNCC5)c(Cl)c4s3)cc(F)c2n1 [Compound 147] | 1000 to 10000 | 100 to 1000 | 100 to 1000 | 100 to 1000 | < 100 | < 100 | 100 to 1000 | < 100 |
| Cn1cc2cc(N3Cc4sc(C5CCNCC5)cc4C3=O)ccc2n1 [Compound 1120] | 1000 to 10000 | 1000 to 10000 | 1000 to 10000 | 1000 to 10000 | 100 to 1000 | 1000 to 10000 | 1000 to 10000 | 1000 to 10000 |
| Cc1cn2cc(-c3nc4sc(C5CCNCC5)cc4s3)nc2c(C)n1 [Compound 239, 4-(2-{6,8-dimethylimidazo[1,2-a]pyrazin-2-yl}thieno[2,3-d][1,3]thiazol-5-yl)piperidine] | 1000 to 10000 | 1000 to 10000 | 100 to 1000 | 1000 to 10000 | 100 to 1000 | 1000 to 10000 | 1000 to 10000 | 1000 to 10000 |
| Cc1cn2cc(-c3nc4sc(C5CCNCC5)cc4s3)cc(C)c2n1 [Compound 140, 4-(2-[2,8-dimethylimidazo[1,2-a]pyridin-6-yl]thieno[2,3-d][1,3]thiazol-5-yl)piperidine hydrochloride] | 100 to 1000 | < 100 | < 100 | < 100 | < 100 | 100 to 1000 | 100 to 1000 | 100 to 1000 |
| Cn1cc2cc(-c3nc4sc(N5CCNC6(CC6)C5)cc4s3)cc(F)c2n1 [Compound 136, 5-(5-[4,7-diazaspiro[2.5]octan-7-yl]thieno[2,3-d][1,3]thiazol-2-yl)-7-fluoro-2-methylindazole] | > 10000 | > 10000 | > 10000 | > 10000 | 100 to 1000 | 100 to 1000 | 1000 to 10000 | 100 to 1000 |
